# Test results from paper PMC12227328, “The Enzyme Glucose‐1‐Phosphate Thymidylyltransferase RmlA Plays a Crucial Role in the Pathogenesis of Pectobacterium actinidiae GX1” (Molecular Plant Pathology, 2025).
# Columns and labels:
# [1] = target: T1, RmlA (glucose-1-phosphate thymidylyltransferase, gene 1774) (Pectobacterium actinidiae, UniProt A0ABW8GFN0, G107A/D108A/N109A/G144A/E159A/V170A/E196A); settings: read-out: binding affinity; 50 mM Tris-HCl, 1 mM MgCl2, 0.05% Tween 20, pH 8.0; ligand as disodium salt
# T1 construct: gene rfbA
# [2] = target: T2, RmlA (glucose-1-phosphate thymidylyltransferase, gene 1774) (Pectobacterium actinidiae, UniProt A0ABW8GFN0); assay: microscale thermophoresis, FITC-labelled RmlA; settings: read-out: binding affinity; 50 mM Tris-HCl, 1 mM MgCl2, 0.05% Tween 20, pH 8.0; ligand as disodium salt
# T2 construct: gene rfbA; intact rmlA cloned from GX1 genomic DNA into pET32a; fusion protein; E. coli ArcticExpress (DE3); FITC-labelled
Compound,Kd [1] [µM],Kd [2] [µM]
Cc1cn([C@H]2C[C@H](O)[C@@H](COP(=O)(O)OP(=O)(O)OP(=O)(O)O)O2)c(=O)[nH]c1=O [dTTP],2710,199
O=P(O)(O)O[C@H]1O[C@H](CO)[C@@H](O)[C@H](O)[C@H]1O [G-1-P],8960,73.3
